{"source": "paper PMC5218480", "about": "(PLoS ONE, 2017)", "system": "MV-4-11 cells", "experiment": "Gene expression microarray analysis (Affymetrix PrimeView) and GSEA", "assay_type": "cell-based, human", "design": "RFU PODN (11730768_x_at) / Fold change /veh PODN (11730768_x_at) / RFU LINC00158 (11744669_a_at) / Fold change /veh LINC00158 (11744669_a_at) / RFU DUSP10 (11751237_a_at) / Fold change /veh DUSP10 (11751237_a_at) / RFU ID3 (11757404_x_at) / Fold change /veh ID3 (11757404_x_at) / RFU PLEKHG5 (11737974_s_at) / Fold change /veh PLEKHG5 (11737974_s_at) / RFU LRRC4B (11730491_at) / Fold change /veh LRRC4B (11730491_at) / RFU GIMAP4 (11747438_a_at) / Fold change /veh GIMAP4 (11747438_a_at) / RFU KRT8 (11758183_x_at) / Fold change /veh KRT8 (11758183_x_at) / RFU CNN1 (11734310_a_at) / Fold change /veh CNN1 (11734310_a_at) / RFU VPS37D (11726825_at) / Fold change /veh VPS37D (11726825_at) / RFU C10orf10 (11716522_x_at) / Fold change /veh C10orf10 (11716522_x_at) / RFU KIR2DL2 /// KIR2DL4 /// KIR2DL5A /// KIR2DL5B /// KIR2DS1 /// KIR2DS2 /// KIR2DS3 /// KIR2DS4 /// KIR3DL3 /// KIR3DL3 /// KIR3DS1 (11738374_at) / Fold change /veh KIR2DL2 /// KIR2DL4 /// KIR2DL5A /// KIR2DL5B /// KIR2DS1 /// KIR2DS2 /// KIR2DS3 /// KIR2DS4 /// KIR3DL3 /// KIR3DL3 /// KIR3DS1 (11738374_at) / RFU C1QL1 (11718748_at) / Fold change /veh C1QL1 (11718748_at) / RFU TMPRSS4 (11747572_a_at) / Fold change /veh TMPRSS4 (11747572_a_at) / RFU HAMP (11756126_x_at) / Fold change /veh HAMP (11756126_x_at) / RFU RNFT2 (11725882_a_at) / Fold change /veh RNFT2 (11725882_a_at) / RFU NR4A2 (11747474_a_at) / Fold change /veh NR4A2 (11747474_a_at) / RFU ABCC12 (11746883_a_at) / Fold change /veh ABCC12 (11746883_a_at) / RFU TMEM136 (11760407_x_at) / Fold change /veh TMEM136 (11760407_x_at) / RFU CLDN22 /// WWC2 (11732394_at) / Fold change /veh CLDN22 /// WWC2 (11732394_at) / RFU HLA-DPB1 (11760878_x_at) / Fold change /veh HLA-DPB1 (11760878_x_at) / RFU SPINT1 (11716480_a_at) / Fold change /veh SPINT1 (11716480_a_at) / RFU GAP43 (11754022_s_at) / Fold change /veh GAP43 (11754022_s_at) / RFU A4GNT (11735810_at) / Fold change /veh A4GNT (11735810_at) / RFU PRB3 (11715151_x_at) / Fold change /veh PRB3 (11715151_x_at) / RFU TUBB4B (11761932_at) / Fold change /veh TUBB4B (11761932_at) / RFU CAPN14 (11732068_a_at) / Fold change /veh CAPN14 (11732068_a_at) / RFU TMCC2 (11721928_a_at) / Fold change /veh TMCC2 (11721928_a_at) / RFU IRGQ (11745062_a_at) / Fold change /veh IRGQ (11745062_a_at) / RFU FAM174B (11720279_a_at) / Fold change /veh FAM174B (11720279_a_at) / RFU TMPRSS4 (11748680_a_at) / Fold change /veh TMPRSS4 (11748680_a_at) / RFU FAM212B (11763350_a_at) / Fold change /veh FAM212B (11763350_a_at) / RFU PLEKHG5 (11743358_a_at) / Fold change /veh PLEKHG5 (11743358_a_at) / RFU ZSCAN30 (11745921_a_at) / Fold change /veh ZSCAN30 (11745921_a_at) / RFU CMKLR1 (11741424_a_at) / Fold change /veh CMKLR1 (11741424_a_at) / RFU LOC101060620 /// MAPK8IP1 (11723275_at) / Fold change /veh LOC101060620 /// MAPK8IP1 (11723275_at) / RFU SPTSSB (11747773_x_at) / Fold change /veh SPTSSB (11747773_x_at) / RFU PRSS12 (11739890_at) / Fold change /veh PRSS12 (11739890_at) / RFU BIN1 (11741810_x_at) / Fold change /veh BIN1 (11741810_x_at) / RFU WNT11 (11732464_a_at) / Fold change /veh WNT11 (11732464_a_at) / RFU C10orf10 (11716521_a_at) / Fold change /veh C10orf10 (11716521_a_at) / RFU C5orf56 (11738089_at) / Fold change /veh C5orf56 (11738089_at) / RFU CYB561 (11721691_x_at) / Fold change /veh CYB561 (11721691_x_at) / RFU ANKRD19P (11752326_a_at) / Fold change /veh ANKRD19P (11752326_a_at) / RFU OR2T12 /// OR2T33 /// OR2T8 (11738714_s_at) / Fold change /veh OR2T12 /// OR2T33 /// OR2T8 (11738714_s_at) / RFU VCAN (11748164_a_at) / Fold change /veh VCAN (11748164_a_at) / RFU JSRP1 (11732532_at) / Fold change /veh JSRP1 (11732532_at) / RFU KRTAP10-11 (11738290_x_at) / Fold change /veh KRTAP10-11 (11738290_x_at) / RFU MYO3A (11730013_a_at) / Fold change /veh MYO3A (11730013_a_at) / RFU EBF3 (11725865_a_at) / Fold change /veh EBF3 (11725865_a_at) / RFU CAMK2N1 (11719241_x_at) / Fold change /veh CAMK2N1 (11719241_x_at) / RFU C5orf56 (11738088_a_at) / Fold change /veh C5orf56 (11738088_a_at) / RFU OLFML3 (11715873_a_at) / Fold change /veh OLFML3 (11715873_a_at) / RFU LOC100653217 /// NTM (11731650_a_at) / Fold change /veh LOC100653217 /// NTM (11731650_a_at) / RFU MAPK11 (11762145_a_at) / Fold change /veh MAPK11 (11762145_a_at) / RFU FIZ1 (11724087_x_at) / Fold change /veh FIZ1 (11724087_x_at) / RFU OASL (11726364_x_at) / Fold change /veh OASL (11726364_x_at) / RFU SOX15 (11748057_x_at) / Fold change /veh SOX15 (11748057_x_at) / RFU CD79A (11719716_a_at) / Fold change /veh CD79A (11719716_a_at) / RFU HIST1H1D (11736915_at) / Fold change /veh HIST1H1D (11736915_at) / RFU CASKIN2 (11723855_a_at) / Fold change /veh CASKIN2 (11723855_a_at) / RFU LOC730098 (11760151_x_at) / Fold change /veh LOC730098 (11760151_x_at) / RFU OR4N2 (11742367_at) / Fold change /veh OR4N2 (11742367_at) / RFU PRRT2 (11749266_a_at) / Fold change /veh PRRT2 (11749266_a_at) / RFU SNX32 (11753110_a_at) / Fold change /veh SNX32 (11753110_a_at) / RFU CDHR5 (11726645_a_at) / Fold change /veh CDHR5 (11726645_a_at) / RFU RCAN1 (11760418_a_at) / Fold change /veh RCAN1 (11760418_a_at) / RFU FAM167A (11723789_a_at) / Fold change /veh FAM167A (11723789_a_at) / RFU FAM26E (11764081_at) / Fold change /veh FAM26E (11764081_at) / RFU ISYNA1 (11749810_s_at) / Fold change /veh ISYNA1 (11749810_s_at) / RFU ACY1 (11761880_at) / Fold change /veh ACY1 (11761880_at) / RFU 11764098_at / Fold change /veh 11764098_at / RFU SAMD14 (11745864_x_at) / Fold change /veh SAMD14 (11745864_x_at) / RFU NPB (11741838_a_at) / Fold change /veh NPB (11741838_a_at) / RFU TMPRSS6 (11731388_a_at) / Fold change /veh TMPRSS6 (11731388_a_at) / RFU KRTAP10-2 (11738614_at) / Fold change /veh KRTAP10-2 (11738614_at) / RFU ARHGAP8 /// PRR5-ARHGAP8 (11727945_x_at) / Fold change /veh ARHGAP8 /// PRR5-ARHGAP8 (11727945_x_at) / RFU KRTAP5-7 /// NADSYN1 (11734609_at) / Fold change /veh KRTAP5-7 /// NADSYN1 (11734609_at) / RFU RASL12 (11751679_a_at) / Fold change /veh RASL12 (11751679_a_at) / RFU CDKN2B (11736163_a_at) / Fold change /veh CDKN2B (11736163_a_at) / RFU PRF1 (11729649_at) / Fold change /veh PRF1 (11729649_at) / RFU, ZNF638 /// ZNF638-IT1 / Fold change vs veh, ZNF638 /// ZNF638-IT1 / RFU, PANK3 / Fold change vs veh, PANK3 / RFU, SH3YL1 / Fold change vs veh, SH3YL1 / RFU, ZEB2 / Fold change vs veh, ZEB2 / RFU, NRIP1 / Fold change vs veh, NRIP1 / RFU, PTTG1IP / Fold change vs veh, PTTG1IP / RFU, CAPN2 / Fold change vs veh, CAPN2 / RFU, MED14 / Fold change vs veh, MED14 / RFU, SNORA58 / Fold change vs veh, SNORA58 / RFU, C1orf63 / Fold change vs veh, C1orf63 / RFU, LRRFIP1 / Fold change vs veh, LRRFIP1 / RFU, NDUFAF7 / Fold change vs veh, NDUFAF7 / RFU, SLC12A2 / Fold change vs veh, SLC12A2 / RFU, IBTK / Fold change vs veh, IBTK / RFU, ESF1 / Fold change vs veh, ESF1 / Fold change vs veh, TMEM50B / RFU, TAOK1 / Fold change vs veh, TAOK1 / RFU, ACBD3 / Fold change vs veh, ACBD3 / RFU, TMA16 / Fold change vs veh, TMA16 / RFU, RWDD3 / Fold change vs veh, RWDD3 / RFU, BCAT1 / Fold change vs veh, BCAT1 / RFU, EDEM3 / Fold change vs veh, EDEM3 / RFU, TMEM33 / Fold change vs veh, TMEM33 / RFU, WDR75 / Fold change vs veh, WDR75 / RFU, AHCTF1 / Fold change vs veh, AHCTF1 / RFU, TFRC / Fold change vs veh, TFRC / RFU, ZDHHC17 / Fold change vs veh, ZDHHC17 / RFU, NOM1 / Fold change vs veh, NOM1 / RFU, ARL8B / Fold change vs veh, ARL8B / RFU, ZBTB11 / Fold change vs veh, ZBTB11 / RFU, TAMM41 / Fold change vs veh, TAMM41 / RFU, KIAA1704 /// LOC100996395 / Fold change vs veh, KIAA1704 /// LOC100996395 / RFU, ING1 / Fold change vs veh, ING1 / RFU, TRMT61B / Fold change vs veh, TRMT61B / RFU, FUBP3 / Fold change vs veh, FUBP3 / RFU, TP53 / Fold change vs veh, TP53 / RFU, TNKS2 / Fold change vs veh, TNKS2 / RFU, ZFP14 / Fold change vs veh, ZFP14 / RFU, ACTR2 / Fold change vs veh, ACTR2 / RFU, PPP3R1 / Fold change vs veh, PPP3R1 / RFU, PIK3R1 / Fold change vs veh, PIK3R1 / RFU, HNRNPA1 / Fold change vs veh, HNRNPA1 / RFU, RNF170 / Fold change vs veh, RNF170 / RFU, ZNF28 / Fold change vs veh, ZNF28 / RFU, RNGTT / Fold change vs veh, RNGTT / RFU, OGT / Fold change vs veh, OGT / RFU, BRD1 / Fold change vs veh, BRD1 / RFU, MARS / Fold change vs veh, MARS / RFU, ZNF655 / Fold change vs veh, ZNF655 / RFU, FAHD1 / Fold change vs veh, FAHD1 / RFU, BDP1 / Fold change vs veh, BDP1 / RFU, LRRCC1 / Fold change vs veh, LRRCC1 / RFU, ARID1A / Fold change vs veh, ARID1A / RFU, ZNF146 / Fold change vs veh, ZNF146 / RFU, ZNF330 / Fold change vs veh, ZNF330 / RFU, GPN3 / Fold change vs veh, GPN3 / RFU, C9orf123 / Fold change vs veh, C9orf123 / RFU, N4BP2L2 / Fold change vs veh, N4BP2L2 / RFU, ARFIP1 / Fold change vs veh, ARFIP1 / RFU, FAM179B / Fold change vs veh, FAM179B / RFU, BCL10 / Fold change vs veh, BCL10 / RFU, UHRF1BP1L / Fold change vs veh, UHRF1BP1L / RFU, BET1 / Fold change vs veh, BET1 / RFU, CNOT2 / Fold change vs veh, CNOT2 / RFU, ZNF268 / Fold change vs veh, ZNF268 / Fold change vs veh, ZNF507 / RFU, DGCR2 / Fold change vs veh, DGCR2 / RFU, WDSUB1 / Fold change vs veh, WDSUB1 / Fold change vs veh, HSP90B1 /// MIR3652 / RFU, ADSS / Fold change vs veh, ADSS / RFU, GK / Fold change vs veh, GK / RFU, ZNF148 / Fold change vs veh, ZNF148 / RFU, TAF9 / Fold change vs veh, TAF9 / RFU, SLC1A5 / Fold change vs veh, SLC1A5 / RFU, SLMO2 / Fold change vs veh, SLMO2 / RFU, ABCC4 / Fold change vs veh, ABCC4 / RFU, LOC101060439 /// RAP1B / Fold change vs veh, LOC101060439 /// RAP1B / RFU, RFX7 / Fold change vs veh, RFX7 / RFU, GTPBP10 / Fold change vs veh, GTPBP10 / RFU, CNEP1R1 / Fold change vs veh, CNEP1R1 / RFU, BIVM-ERCC5 /// ERCC5 / Fold change vs veh, BIVM-ERCC5 /// ERCC5 / RFU, ILF3 / Fold change vs veh, ILF3 / RFU 11762660_at / Fold change /veh 11762660_at / RFU VCAN (11757783_s_at) / Fold change /veh VCAN (11757783_s_at) / RFU DDX43 (11728927_at) / Fold change /veh DDX43 (11728927_at) / RFU KRT8 (11758188_x_at) / Fold change /veh KRT8 (11758188_x_at) / RFU NKD1 (11759106_at) / Fold change /veh NKD1 (11759106_at) / RFU SRD5A1 (11742802_a_at) / Fold change /veh SRD5A1 (11742802_a_at) / RFU TPSAB1 /// TPSB2 (11721975_s_at) / Fold change /veh TPSAB1 /// TPSB2 (11721975_s_at) / RFU GSTM3 (11746129_a_at) / Fold change /veh GSTM3 (11746129_a_at) / RFU IL23R (11737362_x_at) / Fold change /veh IL23R (11737362_x_at) / RFU TMEM51 (11727254_a_at) / Fold change /veh TMEM51 (11727254_a_at) / RFU PIWIL2 (11732686_x_at) / Fold change /veh PIWIL2 (11732686_x_at) / RFU ORM1 (11744905_x_at) / Fold change /veh ORM1 (11744905_x_at) / RFU CCDC152 (11743942_at) / Fold change /veh CCDC152 (11743942_at) / RFU ECM1 (11717891_a_at) / Fold change /veh ECM1 (11717891_a_at) / RFU IL23R (11748794_a_at) / Fold change /veh IL23R (11748794_a_at) / RFU TNFAIP8L3 (11732012_x_at) / Fold change /veh TNFAIP8L3 (11732012_x_at) / RFU MBOAT4 (11741988_at) / Fold change /veh MBOAT4 (11741988_at) / RFU 11764193_at / Fold change /veh 11764193_at / RFU TMEM53 (11763286_at) / Fold change /veh TMEM53 (11763286_at) / RFU MAGEB2 (11727129_at) / Fold change /veh MAGEB2 (11727129_at) / RFU TMEM200A (11744735_a_at) / Fold change /veh TMEM200A (11744735_a_at) / RFU CCDC152 (11751479_a_at) / Fold change /veh CCDC152 (11751479_a_at) / RFU FAM211A (11726209_a_at) / Fold change /veh FAM211A (11726209_a_at) / RFU RGS16 (11746705_a_at) / Fold change /veh RGS16 (11746705_a_at) / RFU VCAN (11755009_s_at) / Fold change /veh VCAN (11755009_s_at) / RFU RHOB (11743442_s_at) / Fold change /veh RHOB (11743442_s_at) / RFU RGS16 (11720943_a_at) / Fold change /veh RGS16 (11720943_a_at) / RFU RGS16 (11720944_at) / Fold change /veh RGS16 (11720944_at) / RFU, VPS4B / Fold change vs veh, VPS4B / RFU, CREB1 / Fold change vs veh, CREB1 / RFU, DNAJC13 / Fold change vs veh, DNAJC13 / RFU, GNAQ / Fold change vs veh, GNAQ / RFU, CDK5R1 / Fold change vs veh, CDK5R1 / RFU, ZRANB3 / Fold change vs veh, ZRANB3 / RFU, CUL4A / Fold change vs veh, CUL4A / RFU, CCNY / Fold change vs veh, CCNY / RFU, UFL1 / Fold change vs veh, UFL1 / RFU, COG3 / Fold change vs veh, COG3 / RFU, DIAPH2 / Fold change vs veh, DIAPH2 / RFU, SKA2 / Fold change vs veh, SKA2 / RFU, AFF3 / Fold change vs veh, AFF3 / RFU, LMF1 / Fold change vs veh, LMF1 / RFU, IPO11 / Fold change vs veh, IPO11 / RFU, DFFB / Fold change vs veh, DFFB / RFU, FOXP1 / Fold change vs veh, FOXP1 / RFU, CARD8 / Fold change vs veh, CARD8 / RFU, STRN3 / Fold change vs veh, STRN3 / RFU, ADK / Fold change vs veh, ADK / RFU, RASSF2 / Fold change vs veh, RASSF2 / RFU, WIPF1 / Fold change vs veh, WIPF1 / RFU, LARP1B / Fold change vs veh, LARP1B / RFU, RASA1 / Fold change vs veh, RASA1 / RFU, RB1 / Fold change vs veh, RB1 / RFU, PPFIA1 / Fold change vs veh, PPFIA1 / RFU, MAT2A / Fold change vs veh, MAT2A / RFU, CCT5 / Fold change vs veh, CCT5 / RFU, WDR92 / Fold change vs veh, WDR92 / RFU, CUX1 / Fold change vs veh, CUX1 / RFU, TTC7A / Fold change vs veh, TTC7A / RFU, TMEM135 / Fold change vs veh, TMEM135 / RFU, DEPTOR / Fold change vs veh, DEPTOR / RFU, CPM / Fold change vs veh, CPM / RFU, DNAJB6 / Fold change vs veh, DNAJB6 / RFU, CACNA2D3 / Fold change vs veh, CACNA2D3 / RFU, DTX4 / Fold change vs veh, DTX4 / RFU, TFCP2 / Fold change vs veh, TFCP2 / RFU, GMCL1 /// GMCL1P1 / Fold change vs veh, GMCL1 /// GMCL1P1 / RFU, AEBP2 / Fold change vs veh, AEBP2 / RFU, SNHG1 /// SNORD22 /// SNORD25 /// SNORD26 /// SNORD27 /// SNORD28 /// SNORD29 /// SNORD31 / Fold change vs veh, SNHG1 /// SNORD22 /// SNORD25 /// SNORD26 /// SNORD27 /// SNORD28 /// SNORD29 /// SNORD31 / Fold change (Aza/veh), C12orf56 (ProbeSet 11735607_a_at) / Fold change (ACY-1035/veh), C12orf56 (ProbeSet 11735607_a_at) / Fold change (Aza/veh), FGFR1OP (ProbeSet 11751329_s_at) / Fold change (ACY-1035/veh), FGFR1OP (ProbeSet 11751329_s_at) / Fold change (Aza/veh), VPS36 (ProbeSet 11739960_a_at) / Fold change (ACY-1035/veh), VPS36 (ProbeSet 11739960_a_at) / RFU SYPL1 (11715823_x_at) / Fold change /veh SYPL1 (11715823_x_at) / RFU IGFBP7 (11715501_s_at) / Fold change /veh IGFBP7 (11715501_s_at) / RFU REEP3 (11722064_at) / Fold change /veh REEP3 (11722064_at) / RFU IGLL1 (11728026_x_at) / Fold change /veh IGLL1 (11728026_x_at): dose or concentration left out as unconfirmed", "conditions": "ProbeSet 11732306_x_at; LIST D", "data": [{"smiles": "Nc1ccc(-c2cccs2)cc1NC(=O)c1ccc2c(c1)cc(C1CC1)n2CCN1CCOCC1", "note": "[ACY-1035]", "values": [{"measurement": "Fold change vs veh, CREB1", "value": 0.87}]}]}
